Results taken from ChEMBL document CHEMBL5303763, “Data for DCP probe BI-3802” (2023).
Active and inactive are the calls of the source. No cut-off for these calls is given here.

How the values were obtained:
[1] = target: Beta-2 adrenergic receptor (Homo sapiens) (UniProt P07550); experiment: BETA2/HUM Eurofins SafetyScreen44 (BI); settings: filed as antagonist, Compound concentration 10.0 uM
[2] = target: hERG (KCNH2) (Homo sapiens, UniProt Q12809); experiment: HERG_DOFETILIDE Eurofins SafetyScreen44 (BI); settings: probe [3H] Dofetilide, compound concentration 10 uM, read-out: % Ctrl
[3] = target: L-type Ca2+ channel (dihydropyridine site), Voltage-dependent L-type calcium channel subunit alpha-1C (Rattus norvegicus, UniProt P22002); experiment: CA+/DHPSI/R Eurofins SafetyScreen44 (BI); settings: rat brain, probe [3H](+)PN200-110, compound concentration 10 uM, read-out: % Ctrl
[4] = target: Histamine H1 receptor (Homo sapiens) (UniProt P35367); experiment: H1/PYRIL/HS Eurofins SafetyScreen44 (BI); settings: Compound concentration 10.0 uM
[5] = target: 3',5'-cyclic-AMP phosphodiesterase 4D (Homo sapiens) (UniProt Q08499); experiment: PDE4D2 Eurofins SafetyScreen44 (BI); settings: Compound concentration 10.0 uM
[6] = target: Histamine H2 receptor (Homo sapiens) (UniProt P25021); experiment: H2/APT/HS Eurofins SafetyScreen44 (BI); settings: filed as antagonist, Compound concentration 10.0 uM
[7] = target: T1, Muscarinic acetylcholine receptor M2 (Homo sapiens) (UniProt P08172); experiment: M2/H Eurofins SafetyScreen44 (BI); settings: filed as antagonist, Compound concentration 10.0 uM
T1 sequence (whole entry): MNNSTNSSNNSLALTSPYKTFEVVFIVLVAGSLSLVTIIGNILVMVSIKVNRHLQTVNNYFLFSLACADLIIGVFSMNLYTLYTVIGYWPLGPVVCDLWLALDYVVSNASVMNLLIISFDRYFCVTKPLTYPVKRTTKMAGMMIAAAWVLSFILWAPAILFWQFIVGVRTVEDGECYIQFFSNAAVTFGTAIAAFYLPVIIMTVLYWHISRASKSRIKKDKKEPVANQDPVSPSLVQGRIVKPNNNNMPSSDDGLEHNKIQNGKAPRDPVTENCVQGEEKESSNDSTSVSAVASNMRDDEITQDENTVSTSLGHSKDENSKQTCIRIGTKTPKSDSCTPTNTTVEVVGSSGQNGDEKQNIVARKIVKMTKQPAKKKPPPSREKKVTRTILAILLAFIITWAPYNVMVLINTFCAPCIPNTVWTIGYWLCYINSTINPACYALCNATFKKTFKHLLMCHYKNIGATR

[8] = target: Adenosine receptor A2a (Homo sapiens) (UniProt P29274); experiment: A2A/H Eurofins SafetyScreen44 (BI); settings: filed as antagonist, Compound concentration 10.0 uM
[9] = target: Cholecystokinin receptor type A (Homo sapiens) (UniProt P32238); experiment: CCKA/H Eurofins SafetyScreen44 (BI); settings: Compound concentration 10.0 uM
[10] = target: GABA-A receptor; anion channel (Rattus norvegicus) (UniProt O09028+P15431+P18506+P18508+P19969+P20236+P23574+P23576+P28471+P28473+P30191+P62813+P63079+P63138+Q91ZM7+Q9ES14); experiment: BZD/CENTR/R Eurofins SafetyScreen44 (BI); assay type: protein-complex assay; settings: Compound concentration 10.0 uM
[11] = target: cGMP-inhibited 3',5'-cyclic phosphodiesterase 3A (Homo sapiens) (UniProt Q14432); experiment: PDE3A Eurofins SafetyScreen44 (BI); settings: Compound concentration 10.0 uM
[12] = target: D(1A) dopamine receptor (Homo sapiens) (UniProt P21728); experiment: D1/H Eurofins SafetyScreen44 (BI); settings: filed as antagonist, Compound concentration 10.0 uM
[13] = target: voltage-gated Na+ channel (site 2) (Rattus norvegicus, UniProt F1LQQ7+O08562+O88420+O88457+P04774+P04775+P08104+P15389+P15390+Q62968); experiment: NA+/SITE2/R Eurofins SafetyScreen44 (BI); assay type: protein assay; settings: rat brain, probe [3H]batrachotoxinin, compound concentration 10 uM, read-out: % Ctrl
[14] = target: Mu-type opioid receptor (Homo sapiens) (UniProt P35372); experiment: MU/H Eurofins SafetyScreen44 (BI); settings: Compound concentration 10.0 uM
[15] = target: Delta-type opioid receptor (Homo sapiens) (UniProt P41143); experiment: DELTA2/H Eurofins SafetyScreen44 (BI); settings: Compound concentration 10.0 uM
[16] = target: 5-hydroxytryptamine receptor 2A (Homo sapiens) (UniProt P28223); experiment: 5HT2AH_AGON Eurofins SafetyScreen44 (BI); settings: filed as agonist, Compound concentration 10.0 uM
[17] = target: 5-hydroxytryptamine receptor 2B (Homo sapiens) (UniProt P41595); experiment: 5HT2B/H AG Eurofins SafetyScreen44 (BI); settings: filed as agonist, Compound concentration 10.0 uM
[18] = target: Glutamate NMDA receptor (Rattus norvegicus) (UniProt P35439+Q00959+Q00960+Q00961+Q62645+Q8VHN2+Q9R1M7); experiment: NMDA/R Eurofins SafetyScreen44 (BI); assay type: protein-complex assay; settings: Compound concentration 10.0 uM
[19] = target: Alpha-1A adrenergic receptor (Homo sapiens) (UniProt P35348); experiment: ALPHA1AH_ANTAG Eurofins SafetyScreen44 (BI); settings: filed as antagonist, Compound concentration 10.0 uM
[20] = target: B-cell lymphoma 6 protein (Homo sapiens, UniProt P41182); experiment: BCL6:BCOR ULight TR-FRET
[21] = target: Neuronal acetylcholine receptor; alpha4/beta2 (Homo sapiens) (UniProt P17787+P43681); experiment: N_NEURO_A4B2 Eurofins SafetyScreen44 (BI); assay type: protein-complex assay; settings: filed as agonist, Compound concentration 10.0 uM
[22] = target: Sodium-dependent dopamine transporter (Homo sapiens) (UniProt Q01959); experiment: DATRANS/HUM Eurofins SafetyScreen44 (BI); settings: Compound concentration 10.0 uM
[23] = target: Sodium-dependent serotonin transporter (Homo sapiens) (UniProt P31645); experiment: SLC6A4/H Eurofins SafetyScreen44 (BI); settings: filed as antagonist, Compound concentration 10.0 uM
[24] = target: Beta-1 adrenergic receptor (Homo sapiens) (UniProt P08588); experiment: BETA1/HUM Eurofins SafetyScreen44 (BI); settings: Compound concentration 10.0 uM
[25] = target: Glucocorticoid receptor (Homo sapiens) (UniProt P04150); experiment: GCORTICOID/H Eurofins SafetyScreen44 (BI); settings: Compound concentration 10.0 uM
[26] = target: Androgen receptor (Homo sapiens) (UniProt P10275); experiment: ANDROGEN/H Eurofins SafetyScreen44 (BI); settings: Compound concentration 10.0 uM
[27] = target: Vasopressin V1a receptor (Homo sapiens) (UniProt P37288); experiment: V1A/HUM Eurofins SafetyScreen44 (BI); settings: Compound concentration 10.0 uM
[28] = target: Muscarinic acetylcholine receptor M1 (Homo sapiens) (UniProt P11229); experiment: M1/H Eurofins SafetyScreen44 (BI); settings: Compound concentration 10.0 uM
[29] = target: Sodium-dependent noradrenaline transporter (Homo sapiens) (UniProt P23975); experiment: NEUP/H Eurofins SafetyScreen44 (BI); settings: Compound concentration 10.0 uM
[30] = target: MAO-A (Amine oxidase [flavin-containing] A) (Rattus norvegicus, UniProt P21396); experiment: MAO-A_ANTAG Eurofins SafetyScreen44 (BI); parameters: scale not given: the % may be the effect or the level left; settings: compound concentration 10 uM, read-out: % Ctrl

Beta-2 adrenergic receptor (Homo sapiens), sequence (P07550 whole entry, looked up): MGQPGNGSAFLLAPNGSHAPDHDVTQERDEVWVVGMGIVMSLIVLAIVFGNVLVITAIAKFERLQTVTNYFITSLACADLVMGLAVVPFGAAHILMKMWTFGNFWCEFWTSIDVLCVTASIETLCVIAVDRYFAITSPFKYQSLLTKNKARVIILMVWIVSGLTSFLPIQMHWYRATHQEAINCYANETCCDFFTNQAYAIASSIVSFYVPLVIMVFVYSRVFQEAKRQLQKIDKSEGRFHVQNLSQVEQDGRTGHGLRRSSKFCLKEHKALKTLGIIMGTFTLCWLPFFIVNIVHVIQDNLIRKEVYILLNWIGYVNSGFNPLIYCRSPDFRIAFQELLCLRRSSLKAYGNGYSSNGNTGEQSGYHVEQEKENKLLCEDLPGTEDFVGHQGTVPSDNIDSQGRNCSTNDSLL
Delta-type opioid receptor (Homo sapiens), sequence (P41143 whole entry): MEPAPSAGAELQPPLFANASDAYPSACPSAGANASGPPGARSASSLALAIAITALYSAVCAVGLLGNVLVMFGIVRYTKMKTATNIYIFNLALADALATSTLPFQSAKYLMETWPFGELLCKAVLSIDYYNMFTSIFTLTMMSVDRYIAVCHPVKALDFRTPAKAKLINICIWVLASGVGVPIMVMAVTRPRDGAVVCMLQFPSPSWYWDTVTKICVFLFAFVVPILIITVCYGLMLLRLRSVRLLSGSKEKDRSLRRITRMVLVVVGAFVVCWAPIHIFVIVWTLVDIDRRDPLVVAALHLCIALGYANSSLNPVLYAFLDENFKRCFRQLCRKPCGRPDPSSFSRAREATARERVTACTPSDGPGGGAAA
D(1A) dopamine receptor (Homo sapiens), sequence (P21728 whole entry): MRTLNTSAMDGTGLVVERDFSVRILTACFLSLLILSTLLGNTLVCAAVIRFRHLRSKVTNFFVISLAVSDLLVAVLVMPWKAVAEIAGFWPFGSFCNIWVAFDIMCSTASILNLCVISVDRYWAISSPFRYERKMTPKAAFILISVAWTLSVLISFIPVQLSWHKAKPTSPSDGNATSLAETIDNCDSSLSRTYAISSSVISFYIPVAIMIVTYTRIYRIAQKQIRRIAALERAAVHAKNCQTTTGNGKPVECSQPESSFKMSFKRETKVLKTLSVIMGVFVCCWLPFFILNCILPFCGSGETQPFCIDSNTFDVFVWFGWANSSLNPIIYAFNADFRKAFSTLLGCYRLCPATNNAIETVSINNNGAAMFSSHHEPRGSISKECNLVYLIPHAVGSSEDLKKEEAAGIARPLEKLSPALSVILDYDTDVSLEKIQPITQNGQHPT
3',5'-cyclic-AMP phosphodiesterase 4D (Homo sapiens), sequence (Q08499 whole entry): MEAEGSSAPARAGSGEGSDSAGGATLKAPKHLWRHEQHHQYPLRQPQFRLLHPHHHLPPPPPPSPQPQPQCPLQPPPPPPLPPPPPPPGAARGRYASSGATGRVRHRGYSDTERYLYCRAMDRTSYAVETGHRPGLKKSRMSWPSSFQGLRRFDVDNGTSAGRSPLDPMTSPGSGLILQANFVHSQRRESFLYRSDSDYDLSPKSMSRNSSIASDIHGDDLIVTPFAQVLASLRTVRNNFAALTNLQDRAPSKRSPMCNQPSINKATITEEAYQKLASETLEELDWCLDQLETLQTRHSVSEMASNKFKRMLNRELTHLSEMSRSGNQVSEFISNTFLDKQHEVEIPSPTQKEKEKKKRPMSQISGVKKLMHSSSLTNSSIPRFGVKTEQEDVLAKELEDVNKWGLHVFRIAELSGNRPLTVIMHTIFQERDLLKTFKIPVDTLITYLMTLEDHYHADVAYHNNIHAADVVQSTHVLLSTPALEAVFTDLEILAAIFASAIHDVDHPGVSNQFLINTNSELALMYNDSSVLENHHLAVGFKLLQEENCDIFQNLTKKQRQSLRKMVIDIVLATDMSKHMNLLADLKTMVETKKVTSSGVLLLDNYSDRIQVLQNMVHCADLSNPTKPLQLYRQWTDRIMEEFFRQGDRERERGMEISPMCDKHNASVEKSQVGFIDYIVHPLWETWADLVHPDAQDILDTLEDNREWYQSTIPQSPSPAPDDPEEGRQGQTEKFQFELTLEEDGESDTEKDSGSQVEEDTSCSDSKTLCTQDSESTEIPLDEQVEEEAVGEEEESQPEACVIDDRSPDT
Histamine H1 receptor (Homo sapiens), sequence (P35367 whole entry): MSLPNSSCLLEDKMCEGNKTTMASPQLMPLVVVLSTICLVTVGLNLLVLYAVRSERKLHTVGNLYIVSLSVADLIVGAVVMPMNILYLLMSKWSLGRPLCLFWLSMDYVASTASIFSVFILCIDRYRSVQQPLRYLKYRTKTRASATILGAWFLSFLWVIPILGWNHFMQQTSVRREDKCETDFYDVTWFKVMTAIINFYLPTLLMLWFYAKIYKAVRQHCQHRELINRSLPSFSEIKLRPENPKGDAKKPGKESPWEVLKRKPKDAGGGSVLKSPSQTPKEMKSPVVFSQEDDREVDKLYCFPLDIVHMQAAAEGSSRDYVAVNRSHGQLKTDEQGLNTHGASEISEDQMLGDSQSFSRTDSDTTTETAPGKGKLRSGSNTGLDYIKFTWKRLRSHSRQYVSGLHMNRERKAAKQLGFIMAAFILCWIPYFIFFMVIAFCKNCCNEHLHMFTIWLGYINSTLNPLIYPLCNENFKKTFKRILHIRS
Sodium-dependent dopamine transporter (Homo sapiens), sequence (Q01959 whole entry): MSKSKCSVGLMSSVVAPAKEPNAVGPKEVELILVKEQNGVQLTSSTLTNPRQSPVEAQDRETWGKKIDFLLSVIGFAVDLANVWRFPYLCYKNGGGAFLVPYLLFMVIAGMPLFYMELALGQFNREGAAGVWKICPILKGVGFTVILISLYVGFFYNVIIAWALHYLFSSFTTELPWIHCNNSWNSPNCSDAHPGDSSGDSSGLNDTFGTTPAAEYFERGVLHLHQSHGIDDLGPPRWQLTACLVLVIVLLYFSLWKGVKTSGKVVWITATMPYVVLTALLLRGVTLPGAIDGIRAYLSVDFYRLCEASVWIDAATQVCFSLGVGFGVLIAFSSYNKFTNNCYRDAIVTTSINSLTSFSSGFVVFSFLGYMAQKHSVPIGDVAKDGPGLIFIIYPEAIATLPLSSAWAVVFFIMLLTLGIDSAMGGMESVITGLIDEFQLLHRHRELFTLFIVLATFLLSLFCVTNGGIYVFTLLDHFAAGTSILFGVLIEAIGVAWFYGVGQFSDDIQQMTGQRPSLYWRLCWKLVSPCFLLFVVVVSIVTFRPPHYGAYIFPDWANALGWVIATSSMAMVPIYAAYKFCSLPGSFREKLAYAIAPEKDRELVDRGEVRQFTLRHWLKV
5-hydroxytryptamine receptor 2B (Homo sapiens), sequence (P41595 whole entry): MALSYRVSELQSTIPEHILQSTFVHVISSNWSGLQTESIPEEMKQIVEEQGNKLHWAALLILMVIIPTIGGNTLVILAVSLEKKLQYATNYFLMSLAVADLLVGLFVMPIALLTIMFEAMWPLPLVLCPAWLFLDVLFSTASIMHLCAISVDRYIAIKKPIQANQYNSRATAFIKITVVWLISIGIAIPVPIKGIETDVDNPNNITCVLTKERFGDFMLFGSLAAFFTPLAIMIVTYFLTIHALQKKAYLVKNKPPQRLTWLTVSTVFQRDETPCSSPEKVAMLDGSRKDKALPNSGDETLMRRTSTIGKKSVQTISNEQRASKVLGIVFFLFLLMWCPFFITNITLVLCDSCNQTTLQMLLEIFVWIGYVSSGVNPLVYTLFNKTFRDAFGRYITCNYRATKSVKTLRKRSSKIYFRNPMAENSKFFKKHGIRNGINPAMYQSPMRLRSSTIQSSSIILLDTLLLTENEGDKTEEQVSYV
5-hydroxytryptamine receptor 2A (Homo sapiens), sequence (P28223 whole entry): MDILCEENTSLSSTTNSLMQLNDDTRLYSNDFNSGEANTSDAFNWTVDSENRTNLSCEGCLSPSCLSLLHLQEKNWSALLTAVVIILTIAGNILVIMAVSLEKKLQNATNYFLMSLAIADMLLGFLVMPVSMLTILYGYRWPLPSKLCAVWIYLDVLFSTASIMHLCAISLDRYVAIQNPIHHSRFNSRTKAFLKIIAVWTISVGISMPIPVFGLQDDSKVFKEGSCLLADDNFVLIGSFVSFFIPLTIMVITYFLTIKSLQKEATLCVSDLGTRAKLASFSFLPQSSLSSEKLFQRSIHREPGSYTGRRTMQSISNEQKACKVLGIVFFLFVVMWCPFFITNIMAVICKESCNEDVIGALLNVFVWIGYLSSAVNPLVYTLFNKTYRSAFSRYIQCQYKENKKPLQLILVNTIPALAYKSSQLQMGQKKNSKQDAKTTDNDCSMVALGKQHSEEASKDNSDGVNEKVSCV
Sodium-dependent noradrenaline transporter (Homo sapiens), sequence (P23975 whole entry): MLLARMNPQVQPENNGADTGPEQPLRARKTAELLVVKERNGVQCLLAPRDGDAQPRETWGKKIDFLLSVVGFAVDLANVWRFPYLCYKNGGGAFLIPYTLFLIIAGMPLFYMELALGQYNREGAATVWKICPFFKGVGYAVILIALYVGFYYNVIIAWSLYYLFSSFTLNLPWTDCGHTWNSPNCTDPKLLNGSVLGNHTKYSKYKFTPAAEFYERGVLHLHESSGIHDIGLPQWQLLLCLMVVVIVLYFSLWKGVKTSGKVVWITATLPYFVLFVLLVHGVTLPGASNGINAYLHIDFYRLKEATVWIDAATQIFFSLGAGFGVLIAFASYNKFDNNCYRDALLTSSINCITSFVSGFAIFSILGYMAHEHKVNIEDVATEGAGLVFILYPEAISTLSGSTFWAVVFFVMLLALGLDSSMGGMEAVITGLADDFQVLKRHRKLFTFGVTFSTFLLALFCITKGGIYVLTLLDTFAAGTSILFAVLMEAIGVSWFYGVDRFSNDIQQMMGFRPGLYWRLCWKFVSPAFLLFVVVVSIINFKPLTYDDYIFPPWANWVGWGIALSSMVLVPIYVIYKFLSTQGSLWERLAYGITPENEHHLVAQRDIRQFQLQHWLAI

SMILES	residual activity [1]	activity at 10 µM [2]	activity at 10 µM [3]	residual activity [4]	residual activity [5]	residual activity [6]	residual activity [7]	residual activity [8]	residual activity [9]	residual activity [10]	residual activity [11]	residual activity [12]	activity at 10 µM [13]	residual activity [14]	residual activity [15]	residual activity [16]	residual activity [17]	residual activity [18]	residual activity [19]	IC50 [20]	other results
C[C@@H]1C[C@H](C)CN(c2ncc(Cl)c(Nc3ccc4c(c3)cc(OC(C)(C)C(=O)O)c(=O)n4C)n2)C1	89%	95% (not active)	104% (not active)	86%	87%	121%	111%	107%	137%	147%	99%	92%	88% (not active)	44%	97%	125%	159%	88%	99%	10.2 µM (not active)	residual activity [21]: 106%; residual activity [22]: 100%; residual activity [23]: 91%; residual activity [24]: 99%; residual activity [25]: 97%; residual activity [26]: 104%; residual activity [27]: 97%; residual activity [28]: 128%; residual activity [29]: 102%; activity at 10 µM [30]: 96% (not active)
CNC(=O)COc1cc2cc(Nc3nc(N4C[C@H](C)C[C@H](C)C4)ncc3Cl)ccc2n(C)c1=O	101%	76% (not active)	99% (not active)	105%	100%	110%	102%	92%	100%	97%	95%	106%	114% (not active)	81%	100%	112%	12%	78%	110%	≤ 0.003 µM (active)	residual activity [21]: 107%; residual activity [22]: 88%; residual activity [23]: 104%; residual activity [24]: 99%; residual activity [25]: 99%; residual activity [26]: 103%; residual activity [27]: 85%; residual activity [28]: 93%; residual activity [29]: 99%; activity at 10 µM [30]: 89% (not active)
